Assay results published in US20020137929A1, “1 - (3-heterocyclylphenyl) isothiourea, -isourea, -guanidine and -amidine herbicidal agents” (Intellectual Property Department, BASF Aktiengesellschaft, priority 1998, published 2002).

Columns and labels:
AMBEL (Ragweed, Common) [1] = assay: Postemergence herbicidal evaluation; assay type: in vivo, Ambrosia artemisifolia; conditions: postemergence
Procedure, shortened: (§1)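 Two-week-old seedlings sprayed with compound in 50/50 acetone/water plus 0.5% TWEEN 20, at about 0.0156 to 0.500 kg/ha, nozzle at 40 psi. Kept in greenhouse; rated visually 4-5 weeks after treatment on a 0-9 scale versus control, repeat tests averaged.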

ABUTH (Velvetleaf) = assay: Preemergence herbicidal evaluation; assay type: in vivo, Abutilon theophrasti; conditions: rated 4-5 weeks after treatment, rating scale 0-9
Procedure, shortened: (§2)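 Each species is sown separately in potting soil over roughly an inch of soil before any emergence. The soil surface then receives an aqueous acetone spray delivering about 0.0156 to 0.500 kg/ha of compound. After four to five weeks, injury is scored from 0 to 9 relative to a control.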

[2] = tested on: GLXMAW (Soybean, Williams); assay: Preemergence herbicidal evaluation; assay type: in vivo, Glycine max, (L.) Merr. cv Williams; conditions: rated 4-5 weeks after treatment, rating scale 0-9
Procedure, shortened: as §2

[3] = tested on: IPOHE (Morningglory, Ivyleaf); assay: Postemergence herbicidal evaluation; assay type: in vivo, Ipomoea hederacea; conditions: postemergence
Procedure, shortened: as §1

AMBEL (Ragweed, Common) [4] = assay: Preemergence herbicidal evaluation; assay type: in vivo, Ambrosia artemisifolia; conditions: rated 4-5 weeks after treatment, rating scale 0-9
Procedure, shortened: as §2

CASOB (Sicklepod) [5] = assay: Postemergence herbicidal evaluation; assay type: in vivo, Cassia obtusifolia; conditions: postemergence
Procedure, shortened: as §1

MOOVA (Monochoria) = assay: Preemergence weed control under flooded paddy conditions; assay type: in vivo, Monochoria vaginalis; conditions: rated 3-4 weeks after treatment
Procedure, shortened: (§3)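 Greenhouse paddy assay. Acetone/water (50/50 v/v) solutions dosed into flood water, equivalent to about 0.0313 to 0.500 kg/ha active ingredient, over seeds planted 0.5 cm deep in silt loam. Score: 0-9 visual, based on stand, vigor, malformation, size and chlorosis, 3 to 4 weeks after treatment.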

ECHCG (Barnyardgrass) = assay: Postemergence herbicidal evaluation; assay type: in vivo, Echinochloa crus-galli; conditions: postemergence
Procedure, shortened: as §1

[6] = tested on: CHEAL (Lambsquarters, Common); assay: Preemergence herbicidal evaluation; assay type: in vivo, Chenopodium album; conditions: rated 4-5 weeks after treatment, rating scale 0-9
Procedure, shortened: as §2

[7] = tested on: CHEAL (Lambsquarters, Common); assay: Postemergence herbicidal evaluation; assay type: in vivo, Chenopodium album; conditions: postemergence
Procedure, shortened: as §1

[8] = tested on: IPOHE (Morningglory, Ivyleaf); assay: Preemergence herbicidal evaluation; assay type: in vivo, Ipomoea hederacea; conditions: rated 4-5 weeks after treatment, rating scale 0-9
Procedure, shortened: as §2

ORYSAT (Rice, Tebonnet) = assay: Preemergence herbicidal evaluation; assay type: in vivo, Oryza sativa, (L.) Tebonnet; conditions: rated 4-5 weeks after treatment, rating scale 0-9
Procedure, shortened: as §2

[9] = tested on: GLXMAW (Soybean, Williams); assay: Postemergence herbicidal evaluation; assay type: in vivo, Glycine max, (L.) Merr. cv Williams; conditions: postemergence
Procedure, shortened: as §1

CASOB (Sicklepod) [10] = assay: Preemergence herbicidal evaluation; assay type: in vivo, Cassia obtusifolia; conditions: rated 4-5 weeks after treatment, rating scale 0-9
Procedure, shortened: as §2

[11] = tested on: SAGPY (Arrowhead (Pygmaea)); assay: Preemergence weed control under flooded paddy conditions; assay type: in vivo, Sagittaria pygmaea; conditions: rated 3-4 weeks after treatment
Procedure, shortened: as §3

[12] = tested on: TRZAWR (Wheat, Winter, cv Riband); assay: Postemergence herbicidal evaluation; assay type: in vivo, Triticum aestivum; conditions: postemergence
Procedure, shortened: as §1

COc1cc(CN2C(=O)CSC2=Nc2cc(-n3c(=O)cc(C(F)(F)F)n(C)c3=O)c(F)cc2Cl)cc(OC)c1OC [Compound 140, 3-{4-Chloro-2-fluoro-5-{[3-(3,4,5-trimethoxybenzyl)-4-oxo-2-thiazolidinylidene]amino}phenyl}-1-methyl-6-(trifluoromethyl)-2,4(1H,3H)-pyrimidinedione]
Herbicidal rating AMBEL (AMBEL (Ragweed, Common) [1]; rate 0.0156 kg/ha): 2.0
Herbicidal rating AMBEL (AMBEL (Ragweed, Common) [1]; rate 0.0313 kg/ha): 2.0
Herbicidal rating AMBEL (AMBEL (Ragweed, Common) [1]; rate 0.0625 kg/ha): 4.0
Preemergence herbicidal rating ABUTH (ABUTH (Velvetleaf); rate 0.0625 kg/ha): 0.0
Preemergence herbicidal rating ABUTH (ABUTH (Velvetleaf); rate 0.1250 kg/ha): 3.0
Preemergence herbicidal rating ABUTH (ABUTH (Velvetleaf); rate 0.2500 kg/ha): 7.0
Preemergence herbicidal rating GLXMAW ([2]; rate 0.0625 kg/ha): 0.0
Preemergence herbicidal rating GLXMAW ([2]; rate 0.1250 kg/ha): 0.0
Preemergence herbicidal rating GLXMAW ([2]; rate 0.2500 kg/ha): 0.0
Herbicidal rating IPOHE ([3]; rate 0.0156 kg/ha): 9.0
Herbicidal rating IPOHE ([3]; rate 0.0313 kg/ha): 9.0
Herbicidal rating IPOHE ([3]; rate 0.0625 kg/ha): 9.0
Preemergence herbicidal rating AMBEL (AMBEL (Ragweed, Common) [4]; rate 0.0625 kg/ha): 0.0
Preemergence herbicidal rating AMBEL (AMBEL (Ragweed, Common) [4]; rate 0.1250 kg/ha): 0.0
Preemergence herbicidal rating AMBEL (AMBEL (Ragweed, Common) [4]; rate 0.2500 kg/ha): 0.0
Herbicidal rating CASOB (CASOB (Sicklepod) [5]; rate 0.0156 kg/ha): 0.0
Herbicidal rating CASOB (CASOB (Sicklepod) [5]; rate 0.0313 kg/ha): 0.0
Herbicidal rating CASOB (CASOB (Sicklepod) [5]; rate 0.0625 kg/ha): 0.0
herbicidal effect rating, MOOVA (MOOVA (Monochoria); 0.0313 kg/ha): 4.0
herbicidal effect rating, MOOVA (MOOVA (Monochoria); 0.0625 kg/ha): 7.0
herbicidal effect rating, MOOVA (MOOVA (Monochoria); 0.1250 kg/ha): 9.0
herbicidal effect rating, MOOVA (MOOVA (Monochoria); 0.2500 kg/ha): 9.0
Herbicidal rating ECHCG (ECHCG (Barnyardgrass); rate 0.0156 kg/ha): 0.0
Herbicidal rating ECHCG (ECHCG (Barnyardgrass); rate 0.0313 kg/ha): 0.0
Herbicidal rating ECHCG (ECHCG (Barnyardgrass); rate 0.0625 kg/ha): 0.0
Preemergence herbicidal rating CHEAL ([6]; rate 0.0625 kg/ha): 9.0
Preemergence herbicidal rating CHEAL ([6]; rate 0.1250 kg/ha): 9.0
Preemergence herbicidal rating CHEAL ([6]; rate 0.2500 kg/ha): 9.0
Herbicidal rating CHEAL ([7]; rate 0.0156 kg/ha): 3.0
Herbicidal rating CHEAL ([7]; rate 0.0625 kg/ha): 3.0
Preemergence herbicidal rating IPOHE ([8]; rate 0.0625 kg/ha): 0.0
Preemergence herbicidal rating IPOHE ([8]; rate 0.1250 kg/ha): 3.0
Preemergence herbicidal rating IPOHE ([8]; rate 0.2500 kg/ha): 3.0
Preemergence herbicidal rating ORYSAT (ORYSAT (Rice, Tebonnet); rate 0.0625 kg/ha): 0.0
Preemergence herbicidal rating ORYSAT (ORYSAT (Rice, Tebonnet); rate 0.1250 kg/ha): 0.0
Preemergence herbicidal rating ORYSAT (ORYSAT (Rice, Tebonnet); rate 0.2500 kg/ha): 0.0
Herbicidal rating GLXMAW ([9]; rate 0.0156 kg/ha): 3.5
Herbicidal rating GLXMAW ([9]; rate 0.0313 kg/ha): 4.5
Herbicidal rating GLXMAW ([9]; rate 0.0625 kg/ha): 5.5
Preemergence herbicidal rating CASOB (CASOB (Sicklepod) [10]; rate 0.0625 kg/ha): 0.0
Preemergence herbicidal rating CASOB (CASOB (Sicklepod) [10]; rate 0.1250 kg/ha): 0.0
Preemergence herbicidal rating CASOB (CASOB (Sicklepod) [10]; rate 0.2500 kg/ha): 0.0
herbicidal effect rating, SAGPY ([11]; 0.0313 kg/ha): 2.0
herbicidal effect rating, SAGPY ([11]; 0.0625 kg/ha): 3.0
herbicidal effect rating, SAGPY ([11]; 0.1250 kg/ha): 4.0
herbicidal effect rating, SAGPY ([11]; 0.2500 kg/ha): 4.0
Herbicidal rating TRZAWR ([12]; rate 0.0156 kg/ha): 2.5
Herbicidal rating TRZAWR ([12]; rate 0.0313 kg/ha): 3.5
Herbicidal rating TRZAWR ([12]; rate 0.0625 kg/ha): 4.0
